Source: ChEMBL document CHEMBL5335819, “Discovery of an ellipticine derivative as TLR3 inhibitor against influenza A virus and SARS-CoV-2” (Bioorg Med Chem Lett, 2024)
pIC50: −log10 of the molar value. Activity calls are given as the source filed them. The rule behind the calls is not given here.

Assays:
[1] = tested on: Influenza A virus; test: Antiviral activity against Influenza virus infected in TLR3 knockdown human A549 cells assessed as reduction in NP protein level measured after 24 hrs by Western blot analysis; assay type: functional, organism-based
[2] = tested on: SARS-CoV-2; test: Antiviral activity against SARS-CoV-2 infected in African green monkey Vero E6 cells; assay type: functional, organism-based; details: Severe acute respiratory syndrome coronavirus 2, Vero C1008
[3] = tested on: Influenza A virus; test: Antiviral activity against Influenza virus infected in TLR3 knockdown human A549 cells by plaque assay; assay type: functional, organism-based
[4] = tested on: A549; test: Reduction in Poly(I:C) induced TLR3 mRNA expression in human A549 cells by qRT-PCR analysis; assay type: functional, cell-based
[5] = tested on: Influenza A virus; test: Antiviral activity against Influenza A virus A/Puerto Rico/8/34 (H1N1) infected in dog MDCK cells
[6] = Cytotoxicity against human HEK293T cells assessed as reduction in cell viability incubated for 48 hrs by MTT assay; assay type: toxicity, cell-based, HEK-293T
[7] = tested on: SARS-CoV-2; test: Antiviral activity against SARS-CoV-2 infected in African green monkey Vero E6 cells assessed as inhibition of NP protein by indirect immunofluoresence assay; assay type: functional, organism-based; details: Severe acute respiratory syndrome coronavirus 2
[8] = target: Toll-like receptor 3 (Homo sapiens) (UniProt O15455); test: Inhibition of human TLR3 expressed in mouse RAW264.7 cells assessed as inhibition of NO production; assay type: cell-based
[9] = tested on: MDCK; test: Cytotoxicity against MDCK cells assessed as reduction in cell viability incubated for 48 hrs by MTT assay; assay type: toxicity, cell-based, Canis lupus familiaris; details: dog
[10] = tested on: Influenza A virus; test: Antiviral activity against Influenza virus infected in human A549 cells assessed as reduction in virus induced IP-10 mRNA expression level by qRT-PCR analysis; assay type: functional, organism-based
[11] = tested on: Influenza A virus; test: Antiviral activity against Influenza virus infected in human A549 cells assessed as reduction in virus induced CCL-5 mRNA expression level by qRT-PCR analysis; assay type: functional, organism-based
[12] = tested on: Influenza A virus; test: Antiviral activity against Influenza virus infected in TLR3 human knockdown A549 cells assessed as reduction in PB2 protein level measured after 24 hrs by Western blot analysis; assay type: functional, organism-based
[13] = tested on: Influenza A virus; test: Antiviral activity against Influenza A virus A/WSN/33 (H1N1) infected in dog MDCK cells
[14] = Cytotoxicity against human A549 cells assessed as reduction in cell viability incubated for 48 hrs by MTT assay; assay type: toxicity, cell-based
[15] = Cytotoxicity against African green monkey Vero E6 cells assessed as reduction in cell viability by CCK-8 assay; assay type: toxicity, cell-based, Vero C1008; details: chlorocebus sabaeus
[16] = tested on: Influenza A virus; test: Antiviral activity against Influenza virus infected in human A549 cells assessed as reduction in virus induced IFN- beta mRNA expression level by qRT-PCR analysis; assay type: functional, organism-based
[17] = Cytotoxicity against human BEAS-2B cells assessed as reduction in cell viability incubated for 48 hrs by MTT assay; assay type: toxicity, cell-based

Sequence of Toll-like receptor 3 (Homo sapiens) (O15455 whole entry): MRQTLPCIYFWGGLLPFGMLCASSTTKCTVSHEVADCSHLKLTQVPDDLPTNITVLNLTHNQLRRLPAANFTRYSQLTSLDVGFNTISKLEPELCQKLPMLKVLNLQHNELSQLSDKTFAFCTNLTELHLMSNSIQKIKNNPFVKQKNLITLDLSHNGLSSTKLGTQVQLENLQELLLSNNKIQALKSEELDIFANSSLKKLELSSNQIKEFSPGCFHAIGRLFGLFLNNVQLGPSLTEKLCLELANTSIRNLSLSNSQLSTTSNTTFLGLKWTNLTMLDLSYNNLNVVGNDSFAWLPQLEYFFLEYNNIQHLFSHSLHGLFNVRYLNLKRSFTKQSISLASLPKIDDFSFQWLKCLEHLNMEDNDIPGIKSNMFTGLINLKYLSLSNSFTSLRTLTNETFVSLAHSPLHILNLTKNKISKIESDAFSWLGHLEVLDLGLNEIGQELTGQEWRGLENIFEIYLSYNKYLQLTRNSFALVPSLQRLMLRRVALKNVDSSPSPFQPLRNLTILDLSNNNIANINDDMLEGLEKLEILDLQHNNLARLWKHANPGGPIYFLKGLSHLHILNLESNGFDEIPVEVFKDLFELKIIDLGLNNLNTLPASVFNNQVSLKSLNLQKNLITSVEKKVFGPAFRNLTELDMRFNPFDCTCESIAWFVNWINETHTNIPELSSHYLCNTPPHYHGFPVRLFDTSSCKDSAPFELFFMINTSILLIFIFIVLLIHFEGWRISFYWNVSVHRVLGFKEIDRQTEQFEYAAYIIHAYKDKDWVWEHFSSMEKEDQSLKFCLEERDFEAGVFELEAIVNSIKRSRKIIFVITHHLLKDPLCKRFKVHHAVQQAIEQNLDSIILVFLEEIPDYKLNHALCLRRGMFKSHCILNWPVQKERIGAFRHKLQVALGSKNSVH

COc1ccc2[nH]c3c(C)c4ccncc4c(C)c3c2c1
Activity [1]: Active | pIC50 [2]: 6.37 | Activity [3]: inactive | Activity [4]: Active | pIC50 [5]: 6.85 | CC50 at 48 h [6]: 5.33 µM | Activity [7]: Dose-Dependent Effect | inhibition [8]: Active | CC50 [9]: 5.33 µM | Activity [10]: Active | Activity [11]: Active | Activity [12]: Active | pIC50 [13]: 6.48 | CC50 at 48 h [14]: 5.33 µM | CC50 [15]: > 10 µM | Activity [16]: Active | CC50 at 48 h [17]: 5.33 µM
